The molecules below were run on Onchocerca gutturosa adult male worms (assay: Onchocerca gutturosa in vitro screening model: adult worm motility score and MTT/formazan viability). Conditions: read-out: O. gutt Activity class.
Format: cell-based

SMILES	IC50
O=S(=O)(Nc1cc(F)cc2cccnc12)c1ccccn1 [Compound 135, N-(6-fluoro-quinolin-8-yl)-pyridine-2-sulfonamide]	500 to 5000 nM
Cc1ccc(S(=O)(=O)Nc2cc(F)c(F)c3cccnc23)cc1 [Compound 136, N-(5,6-difluoroquin-olin-8-yl)-4-methylben-zenesulfon-amide]	200 to 500 nM
Cc1ccc(NS(=O)(=O)c2ccccn2)c2ncccc12 [Compound 137, N-(5-methyl-quinolin-8-yl)pyridine-2-sulfonamide]	< 200 nM
Cc1ccc(S(=O)(=O)Nc2cc(C(F)(F)F)cc3cccnc23)cc1 [Compound 138, 4-methyl-N-(6-(trifluoro-methyl)quin-olin-8-yl)-benzene-sulfonamide]	200 to 500 nM
O=S(=O)(Nc1c(Cl)cc(N2CCOCC2)c2cccnc12)c1ncccc1C1CC1 [Compound 139, N-(7-chloro-5-morpholino-quinolin-8-yl)-3-cyclopropyl-pyridine-2-sulfonamide]	< 200 nM
COc1ccc2cccnc2c1NS(=O)(=O)c1ncccc1C1CC1 [Compound 141, 3-cyclopropyl-N-(7-methoxy-quinolin-8-yl)-pyridine-2-sulfonamide]	< 200 nM
O=S(=O)(Nc1cccc2cccnc12)c1cccc(-c2ccccc2)n1 [Compound 161, 6-phenyl-N-(quinolin-8-yl)pyridine-2-sulfonamide]	500 to 5000 nM
N#Cc1cccc(S(=O)(=O)Nc2cccc3cccnc23)n1 [Compound 162, 6-cyano-N-(quinolin-8-yl)pyridine-2-sulfonamide]	500 to 5000 nM
O=S(=O)(Nc1cccc2cccnc12)c1cnc(-c2ccccn2)s1 [Compound 170, 2-(pyridin-2-yl)-N-(quinolin-8-yl)thiazole-5-sulfonamide]	< 200 nM
O=S(=O)(Nc1cccc2cccnc12)c1ccc(-c2cnco2)nc1 [Compound 172, 6-(oxazol-5-yl)-N-(quinolin-8-yl)pyridine-3-sulfonamide]	500 to 5000 nM
Cc1nc(C(F)(F)F)ccc1S(=O)(=O)Nc1cccc2cccnc12 [Compound 173, 2-methyl-N-(quinolin-8-yl)-6-(trifluoromethyl) pyridine-3-sulfonamide]	500 to 5000 nM
Cc1nc(S(=O)(=O)Nc2cccc3cccnc23)c(C#N)c(C)c1Cl [Compound 175, 5-chloro-3-cyano-4,6-dimethyl-N-(quinolin-8-yl)pyridine-2-sulfonamide]	200 to 500 nM
Cn1nc(N2CCOCC2)cc1S(=O)(=O)Nc1cccc2cccnc12 [Compound 192, 1-methyl-3-morpholino-N-(quinolin-8-yl)-1H-pyrazole-5-sulfonamide]	500 to 5000 nM
Cc1cccnc1S(=O)(=O)Nc1cncc2cccnc12 [Compound 194, 3-methyl-N-(1,6-naphthyridin-8-yl)pyridine-2-sulfonamide]	200 to 500 nM
O=S(=O)(Nc1ccnc2cccnc12)c1cc(C2CC2)ccn1 [Compound 195]	< 200 nM
Cc1cnc(S(=O)(=O)Nc2cccc3cccnc23)nc1 [Compound 198, 5-methyl-N-(quinolin-8-yl)pyrimidine-2-sulfonamide]	200 to 500 nM
O=S(=O)(Nc1cccc2cccnc12)c1ccncn1 [Compound 199, N-(quinolin-8-yl)pyrimidine-4-sulfonamide]	500 to 5000 nM
O=S(=O)(Nc1cccc2cccnc12)c1ncccn1 [Compound 200, N-(quinolin-8-yl)pyrimidine-2-sulfonamide]	< 200 nM
O=S(=O)(Nc1cccc2cccnc12)c1nnc2ccccn12 [Compound 201, N-(quinolin-8-yl)-[1,2,4]triazolo [4,3-a]pyridine-3-sulfonamide]	500 to 5000 nM
O=S(=O)(Nc1cccc2cncnc12)c1ccccn1 [Compound 202, N-(quinazolin-8-yl)pyridine-2-sulfonamide]	500 to 5000 nM
O=S(=O)(Nc1ccnc2cccnc12)c1ccccn1 [Compound 203, N-(1,5-naphthyridin-4-yl)pyridine-2-sulfonamide]	500 to 5000 nM

SMILES	IC50
O=S(=O)(Nc1cccc2cccnc12)c1c[nH]c2ncccc12 [Compound 204, N-(quinolin-8-yl)-1H-pyrrolo[2,3-b]pyridine-3-sulfonamide]	500 to 5000 nM
O=S(=O)(Nc1cccc2cccnc12)N1CCCCC1 [Compound 205, N-(quinolin-8-yl)piperidine-1-sulfonamide]	500 to 5000 nM
Cc1nccnc1S(=O)(=O)Nc1cccc2cccnc12 [Compound 210, 3-methyl-N-(quinolin-8-yl)pyrazine-2-sulfonamide]	< 200 nM
O=S(=O)(Nc1cccc2cccnc12)c1ncccc1C1CC1 [Compound 214]	200 to 500 nM
CN1CCC(S(=O)(=O)Nc2cccc3cccnc23)CC1 [Compound 216, 1-methyl-N-(quinolin-8-yl)piperidine-4-sulfonamide]	500 to 5000 nM
O=S(=O)(Nc1cccc2cccnc12)c1ccc(O)cn1 [Compound 218, 5-hydroxy-N-(quinolin-8-yl)pyridine-2-sulfonamide]	500 to 5000 nM
O=S(=O)(Nc1cccc2cccnc12)c1ncccc1O [Compound 219, 3-hydroxy-N-(quinolin-8-yl)pyridine-2-sulfonamide]	500 to 5000 nM
COc1cccnc1S(=O)(=O)Nc1cccc2cccnc12 [Compound 223, 3-methoxy-N-(quinolin-8-yl)pyridine-2-sulfonamide]	< 200 nM
COc1cccc(S(=O)(=O)Nc2cccc3cccnc23)n1 [Compound 224, 6-methoxy-N-(quinolin-8-yl)pyridine-2-sulfonamide]	200 to 500 nM
CCn1c(S(=O)(=O)Nc2cccc3cccnc23)nc(C)c1C [Compound 226, 1-ethyl-4,5-dimethyl-N-(quinolin-8-yl)-1H-imidazole-2-sulfonamide]	< 200 nM
CCn1cccc1S(=O)(=O)Nc1cccc2cccnc12 [Compound 227, 1-ethyl-N-(quinolin-8-yl)-1H-pyrrole-2-sulfonamide]	< 200 nM
O=S(=O)(Nc1cccc2cccnc12)c1nccc2ncccc12 [Compound 229, N-(quinolin-8-yl)-1,6-naphthyridine-5-sulfonamide]	< 200 nM
Cc1ccnc(S(=O)(=O)Nc2cccc3cccnc23)c1 [Compound 234, 4-methyl-N-(quinolin-8-yl)pyridine-2-sulfonamide]	< 200 nM
COc1ccc(S(=O)(=O)Nc2cccc3cccnc23)nc1 [Compound 235, 5-methoxy-N-(quinolin-8-yl)pyridine-2-sulfonamide]	< 200 nM
O=S(=O)(Nc1cccc2cccnc12)c1ccc2ccccc2n1 [Compound 239, N-(quinolin-8-yl)quinoline-2-sulfonamide]	< 200 nM
CCn1ccnc1S(=O)(=O)Nc1cccc2cccnc12 [Compound 240, 1-ethyl-N-(quinolin-8-yl)-1H-imidazole-2-sulfonamide]	< 200 nM
CC(C)n1ccnc1S(=O)(=O)Nc1cccc2cccnc12 [Compound 241, 1-isopropyl-N-(quinolin-8-yl)-1H-imidazole-2-sulfonamide]	< 200 nM
O=S(=O)(Nc1cccc2cccnc12)c1ncc[nH]1 [Compound 243, N-(quinolin-8-yl)-1H-imidazole-2-sulfonamide]	500 to 5000 nM
O=S(=O)(Nc1cccc2cccnc12)c1ccc(-c2ccccc2)cn1 [Compound 244, 5-phenyl-N-(quinolin-8-yl)pyridine-2-sulfonamide]	500 to 5000 nM
O=S(=O)(Nc1cccc2cccnc12)c1ccc(F)cn1 [Compound 247, 5-fluoro-N-(quinolin-8-yl)pyridine-2-sulfonamide]	< 200 nM

Source: patent US20240148744A1 (Celgene Corporation, priority 2021, published 2024)
